Laboratory results taken from the NIST ThermoML archive (doi:10.1016/j.jct.2014.05.001).
Numbers after ± are expanded uncertainties.

Settings: Ring tensiometer

## O [water]
298.15 K
  surface tension liquid-gas: 72 ± 0.9 mN/m
303.15 K
  surface tension liquid-gas: 71.1 ± 0.9 mN/m
308.15 K
  surface tension liquid-gas: 70.3 ± 0.9 mN/m
313.15 K
  surface tension liquid-gas: 69.4 ± 0.9 mN/m
